Reference: PMC6017257, “Towards a Novel Class of Multitarget-Directed Ligands: Dual P2X7–NMDA Receptor Antagonists” (Molecules : A Journal of Synthetic Chemistry and Natural …, 2018)

Target: T1, human P2X7 receptor (Homo sapiens, UniProt Q99572)
T1 construct: expressed in transfected cells; host or cells: HEK293
T1 sequence (Q99572 1-595): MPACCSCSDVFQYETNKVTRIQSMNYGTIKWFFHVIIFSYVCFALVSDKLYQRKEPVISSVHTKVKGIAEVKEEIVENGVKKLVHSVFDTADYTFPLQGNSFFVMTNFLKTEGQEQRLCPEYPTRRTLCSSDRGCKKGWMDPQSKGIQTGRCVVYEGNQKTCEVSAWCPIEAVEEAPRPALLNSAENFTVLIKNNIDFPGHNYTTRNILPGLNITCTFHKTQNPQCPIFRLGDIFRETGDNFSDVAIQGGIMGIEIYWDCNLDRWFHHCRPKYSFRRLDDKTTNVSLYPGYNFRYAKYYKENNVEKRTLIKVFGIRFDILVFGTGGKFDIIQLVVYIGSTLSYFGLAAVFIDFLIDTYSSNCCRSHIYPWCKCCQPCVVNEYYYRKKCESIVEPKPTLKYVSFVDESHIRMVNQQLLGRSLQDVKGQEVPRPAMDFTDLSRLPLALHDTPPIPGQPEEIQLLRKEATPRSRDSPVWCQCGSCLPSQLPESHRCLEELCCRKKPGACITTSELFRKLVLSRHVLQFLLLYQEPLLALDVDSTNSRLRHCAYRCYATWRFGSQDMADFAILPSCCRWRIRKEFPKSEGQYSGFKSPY
Experiment: BzATP-induced ethidium bromide uptake (dye uptake) in hP2X7-expressing HEK293 cells
Type: cell-based
Conditions: ethidium bromide accumulation stimulated by BzATP 6 µM, hP2X7-expressing HEK293 cells; from concentration-response curves
Description: All new compounds were evaluated for their antagonistic effects on 2’(3’)-O-(4-benzoylbenzoyl)-ATP (BzATP)-induced ethidium bromide uptake in human embryonic kidney 293 (HEK 293) cells, stably expressing the human P2X7 receptor, using P2X7 receptor antagonist AZD9056—AstraZeneca’s clinical drug candidate [46]—as a positive control. […] However, taking into account that we wanted to design a compound endowed with low micromolar inhibitory potencies against both the P2X7 and NMDA receptors, compound 9g suited our purpose.
HEK293 cells stably expressing the P2X7 receptor were maintained in Dulbecco's modified Eagle's medium (DMEM) supplemented with 10% fetal bovine serum (FBS), 2 mM L-glutamine, and antibiotics (50 U/mL penicillin and […] streptomycin) in a humidified 5% CO2 atmosphere at 37 °C. We used Lipofectamine as a transfection reagent with a pcDNA3.1 vector-based plasmid harbouring hP2X7R (Invitrogen, Waltham, MA, USA). After diluting to 2.5 × 10^6 cells/mL, a buffer composed of 10 mM HEPES, 5 mM N-methyl-D-glutamine, 5.6 mM KCl, 10 mM D-glucose, and 0.5 mM CaCl2 (pH 7.4), supplemented with either 280 mM sucrose or 140 mM NaCl and an 80 μL aliquot, was added to each well of 96-well culture plates. The test compounds and 2(3’)-O-(4-benzoylbenzoyl)-ATP (BzATP) were then added, and the cells were incubated for 2 h in a humidified 5% CO2 atmosphere at 37 °C. After incubation, a Bio-Tek FL600 fluorescence plate reader (Winooski, VT, USA) was used to measure the […] at an excitation wavelength of 530 nm and an emission wavelength of 590 nm. The inhibition (percent) of ethidium ion uptake was expressed as a relative value of the maximum accumulation when stimulated with BzATP only. To calculate IC50 values, we calculated a series of dose–response data using nonlinear regression analysis (i.e., percentage accumulation of ethidium bromide vs compound concentration). The concentration of ethidium bromide was 0.1 mM.

Row | SMILES | IC50 [µM]
1 | CC12CC3(C)CC(N)(C1)CC(C(=O)NNc1c(Cl)cncc1Cl)(C2)C3 [Compound 15a, 3-Amino-N'-(3,5-dichloropyridin-4-yl)-5,7-dimethyladamantane-1-carbohydrazide] | 9.9 ± 0.7
2 | CC12CC3(C)CC(N)(C1)CC(C(=O)NNc1ccccc1Cl)(C2)C3 [Compound 15b, 3-Amino-N'-(2-chlorophenyl)-5,7-dimethyladamantane-1-carbohydrazide] | 16.1 ± 1.6

Further lines, results first:

Row | IC50 [µM] | SMILES
3 | 0.0041 ± 0.0007 | O=C(NCC12CC3CC(CC(C3)C1)C2)c1cc(CCCNCCCO)ccc1Cl [AZD9056, reference compound]
4 | 6 ± 0.6 | NC12CC3CC(C1)CC(C(=O)NNc1ccccc1Cl)(C3)C2 [Compound 9g, 3-Amino-N'-(2-chlorophenyl)adamantane-1-carbohydrazide]

System: hP2X7
Experiment: not given
Set-up: method as in PMID 18438986
Conditions: read-out: P2X7R antagonist activity IC50; cited from earlier work

Row | SMILES | IC50 [µM]
5 | O=C(NNc1ccccc1Cl)C12CC3CC(CC(C3)C1)C2 [Compound 1a] | 0.0116 ± 0.002
6 | O=C(NNc1ccccc1Cl)C12CC3CC(CC(O)(C3)C1)C2 [Compound 1b] | 0.275 ± 0.05

System: not given
Experiment: not given
Conditions: not given

Row | SMILES | melting point [°C]
7 | CC12CC3(C)CC(N)(C1)CC(C(=O)NNc1c(Cl)cncc1Cl)(C2)C3 [Compound 15a, 3-Amino-N'-(3,5-dichloropyridin-4-yl)-5,7-dimethyladamantane-1-carbohydrazide] | 300 to 302
8 | CC12CC3(C)CC(N)(C1)CC(C(=O)NNc1ccccc1Cl)(C2)C3 [Compound 15b, 3-Amino-N'-(2-chlorophenyl)-5,7-dimethyladamantane-1-carbohydrazide] | 280 to 282

The next lines start with the values.

Row | melting point [°C] | SMILES
9 | 186 to 189 | NC12CC3CC(C1)CC(C(=O)NCc1ccccc1Cl)(C3)C2 [Compound 2, 3-Amino-N-(2-chlorobenzyl)adamantane-1-carboxamide]
10 | 220 to 222 | NC12CC3CC(C1)CC(C(=O)NNc1ccccc1Cl)(C3)C2 [Compound 9g, 3-Amino-N'-(2-chlorophenyl)adamantane-1-carbohydrazide]

System: NMDA receptors
Experiment: Inhibition of NMDA-evoked increase in intracellular calcium in rat cultured cerebellar granule neurons
Type: cell-based
Conditions: NMDA 100 μM with 10 μM glycine, rat cerebellar granule neurons; read-out: IC50 (NMDA receptor)
Description: Additionally, to evaluate whether the synthesized compounds were able to antagonize the NMDA receptors, we measured their effects on the increase in intracellular calcium evoked by NMDA (100 μM, in the presence of 10 μM of glycine) on rat-cultured cerebellar granule neurons.
The functional assay of antagonist activity at the NMDA receptors was performed using primary cultures of rat cerebellar granule neurons that were prepared according to established protocols. Cells were grown on 10 mm poly-L-lysine coated glass cover slips, and used for the experiments after 6–9 days in vitro. Cells were loaded with 6 µM Fura-2 AM (ThermoFisher Scientific-Molecular Probes) for 30 min. Afterwards, the coverslip was mounted on a quartz cuvette containing a Locke-Hepes buffer using a special holder. Measurements were performed using a PerkinElmer LS-55 fluorescence spectrometer (Waltham, MA, USA) equipped with a fast-filter accessory, under mild agitation and at 37 °C. Analysis of each sample was recorded in real time for 1600 s. After stimulation with NMDA (100 µM, in the presence of 10 µM glycine), increasing cumulative concentrations of the compound to be tested were added. The percentages of inhibition at every tested concentration were analyzed using a non-linear regression curve fitting analysis by using the software GraphPad Prism 5.0 (GraphPad Software Inc., La Jolla, CA, USA).
Table S1. NMDA antagonist activity in rat cerebellar granule cells. […]
aPercentage inhibition values at 100 µM (left) and 300 μM (right) were expressed as percentages, relative to maximum intracellular calcium concentration stimulated by 100 µM NMDA in the presence of 10 µM of glycine. All experiments were repeated at least three times. bIC50 value was obtained from concentration response curves.

Row | IC50 [µM] | SMILES
11 | 468 ± 23 | NC12CC3CC(C1)CC(C(=O)NNc1ccccc1Cl)(C3)C2 [Compound 9g, 3-Amino-N'-(2-chlorophenyl)adamantane-1-carbohydrazide]

Same assay, conditions: at 100 µM (left value); relative to maximum intracellular calcium stimulated by 100 µM NMDA with 10 µM glycine

Row | SMILES | % inhibition [%]
12 | NC12CC3CC(C1)CC(C(=O)NCc1ccccc1Cl)(C3)C2 [Compound 2, 3-Amino-N-(2-chlorobenzyl)adamantane-1-carboxamide] | 18
13 | CC12CC3(C)CC(N)(C1)CC(C(=O)NNc1c(Cl)cncc1Cl)(C2)C3 [Compound 15a, 3-Amino-N'-(3,5-dichloropyridin-4-yl)-5,7-dimethyladamantane-1-carbohydrazide] | 20
14 | CC12CC3(C)CC(N)(C1)CC(C(=O)NNc1ccccc1Cl)(C2)C3 [Compound 15b, 3-Amino-N'-(2-chlorophenyl)-5,7-dimethyladamantane-1-carbohydrazide] | 7

Same assay, conditions: at 300 μM (right value); relative to maximum intracellular calcium stimulated by 100 µM NMDA with 10 µM glycine

Row | SMILES | % inhibition [%]
15 | NC12CC3CC(C1)CC(C(=O)NCc1ccccc1Cl)(C3)C2 [Compound 2, 3-Amino-N-(2-chlorobenzyl)adamantane-1-carboxamide] | 30
16 | CC12CC3(C)CC(N)(C1)CC(C(=O)NNc1c(Cl)cncc1Cl)(C2)C3 [Compound 15a, 3-Amino-N'-(3,5-dichloropyridin-4-yl)-5,7-dimethyladamantane-1-carbohydrazide] | 31
17 | CC12CC3(C)CC(N)(C1)CC(C(=O)NNc1ccccc1Cl)(C2)C3 [Compound 15b, 3-Amino-N'-(2-chlorophenyl)-5,7-dimethyladamantane-1-carbohydrazide] | 8

Same assay, conditions: rat cerebellar granule neurons

Row | SMILES | NMDA receptor inhibition (in words)
18 | CC12CC3(C)CC(N)(C1)CC(C(=O)NNc1c(Cl)cncc1Cl)(C2)C3 [Compound 15a, 3-Amino-N'-(3,5-dichloropyridin-4-yl)-5,7-dimethyladamantane-1-carbohydrazide] | unable to significantly inhibit the NMDA receptor even at millimolar concentrations
19 | CC12CC3(C)CC(N)(C1)CC(C(=O)NNc1ccccc1Cl)(C2)C3 [Compound 15b, 3-Amino-N'-(2-chlorophenyl)-5,7-dimethyladamantane-1-carbohydrazide] | unable to significantly inhibit the NMDA receptor even at millimolar concentrations
20 | NC12CC3CC(C1)CC(C(=O)NNc1ccccc1Cl)(C3)C2 [Compound 9g, 3-Amino-N'-(2-chlorophenyl)adamantane-1-carbohydrazide] | some activity as an NMDA receptor antagonist

System: hP2X7
Experiment: not given
Set-up: method as in PMID 22400713
Conditions: read-out: P2X7R antagonist IC50; cited from earlier work

Row | SMILES | IC50 [µM]
21 | CC12CC3CC(C)(C1)CC(C(=O)NNc1c(Cl)cncc1Cl)(C3)C2 [Compound 3] | 0.013 ± 0.001
